Converted amounts (≈) assume the structure as drawn. Where a name gives a salt, the structure may show the parent alone. Read-outs that look alike come from different tables or passages of the source.
Key:
[1] = tested on: Escherichia coli (ATCC25922); assay: MIC, broth microdilution (CLSI), Escherichia coli; conditions: for MIC: Escherichia coli, ATCC25922, read-out: E. coli ATCC 25922 MIC, Table XIII
[2] = tested on: Staphylococcus aureus subsp. aureus (ATCC29213); assay: MIC, broth microdilution (CLSI), Staphylococcus aureus ATCC29213; type: cell-based; conditions: for MIC: Staphylococcus aureus
[3] = tested on: Staphylococcus aureus (ATCC25923); assay: MIC, broth microdilution (CLSI), Staphylococcus aureus ATCC25923; conditions: Staphylococcus aureus, ATCC25923, read-out: S. aureus ATCC 25923 MIC
[4] = tested on: E. coli RNase P RNA, M1 RNA; assay: Inhibition of bacterial RNase P activity, IC50 determination (cleavage of pATSerUG by M1 RNA); type: biochemical; conditions: NI: No inhibition
[5] = ATCC29213, Table XIII, read-out: S. aureus ATCC 29213 MIC
[6] = ATCC29213, read-out: S. aureus ATCC 29213 MIC, Table XIII

Structure (SMILES)	MIC [1] [µg/mL]	MIC [2, 5] [µg/mL]	MIC [2, 6] [µg/mL]	further results
Cc1cccc(C(CCNCCCN)c2cn(C3CCCCC3)c3ccc(C(=O)O)cc23)c1 (centres unmarked) [Compound 387, 3-(3-((3-aminopropyl)amino)-1-(m-tolyl)propyl)-1-cyclohexyl-1H-indole-5-carboxylic acid compound with 2,2,2-trifluoroacetaldehyde (1:2)]	> 128	128 (≈ 286 µM)	–	–
NC1CCC(NCCC(c2cccnc2)c2cn(C3CC4CCC3C4)c3ccccc23)CC1 (centres unmarked) [Compound 324, N1-(3-(1-(bicyclo[2.2.1]heptan-2-yl)-1H-indol-3-yl)-3-(pyridin-3-yl)propyl)cyclohexane-1,4-diamine hydrochloride salt]	64	–	32	–
Cl.Cl.c1ccc2c(c1)c(C(CCNC1CCNCC1)c1ccncc1)cn2C1CCCCC1 (centres unmarked) [Compound 335, N-(3-(1-cyclohexyl-1H-indol-3-yl)-3-(pyridin-4-yl)propyl)piperidin-4-amine hydrochloride salt]	64	64	–	–
Cc1cccc(C(CCNC2CCC(N)CC2)c2cn(C3CCCCC3)c3ccccc23)c1 [Compound 392, (1S,4S)- -N1-(3-(1-cyclohexyl-1H-indol-3-yl)-3-(m-tolyl)propyl) cyclohexane-1,4-diamine hydrochloride salt]	–	–	–	E. coli ATCC 25922 MIC ([1]; Table XIII, hydrochloride salt): 8 µg/mL; S. aureus ATCC 29213 MIC ([2]; Table XIII, hydrochloride salt): 8 µg/mL
N[C@H]1CC[C@H](NCCC(c2ccncc2)c2cn(C3CC4CCC3C4)c3ccccc23)CC1 (stereo partly drawn) [Compound 336, (1R,4R)-N1-(3-(1-(bicyclo[2.2.1]heptan-2-yl)-1H-indol-3-yl)-3-(pyridin-4-yl)propyl)cyclohexane-1,4-diamine hydrochloride salt]	128	–	64	–
COc1cccc(C(CCNC2CCNCC2)c2cn(C3CCCCC3)c3ccc(C#N)cc23)c1 (centres unmarked) [Compound 401, 1-cyclohexyl-3-(1-(3-methoxyphenyl)-3-(piperidin-4-ylamino)propyl)-1H-indole-5-carbonitrile hydrochloride salt]	16	–	16	–
Cc1cccc(C(CCNCCCN2CCCC2)c2cn(C3CCCCC3)c3ccccc23)c1 (centres unmarked) [Compound 367, 3-(1-cyclohexyl-1H-indol-3-yl)-N-(3-(pyrrolidin-1-yl)propyl)-3-(m-tolyl)propan-1-amine]	> 128	64 (≈ 140 µM)	–	–
Cc1cccc(C(CCNC2CCC(N)CC2)c2cn(C3CCOCC3)c3ccccc23)c1 (centres unmarked) [Compound 307, N1-(3-(1-(tetrahydro-2H-pyran-4-yl)-1H-indol-3-yl)-3-(m-tolyl)propyl) cyclohexane-1,4-diamine hydrochloride salt]	64	–	64	–
Cc1cccc(C(CCNCC2OC(CO)C(O)C(O)C2O)c2cn(C3CCCCC3)c3ccccc23)c1 (centres unmarked) [Compound 391, 2-(((3-(1-cyclohexyl-1H-indol-3-yl)-3-(m-tolyl)propyl)amino)methyl)-6-(hydroxymethyl) tetrahydro-2H-pyran-3,4,5-triol]	128 (≈ 245 µM)	–	64 (≈ 122 µM)	–
Cc1cccc(C(CCNCCCN)c2cn(CC3CCNCC3)c3ccc(C#N)cc23)c1 (centres unmarked) [Compound 327, 3-(3-((3-aminopropyl)amino)-1-(m-tolyl)propyl)-1-(piperidin-4-ylmethyl)-1H-indole-5-carbonitrile hydrochloride salt]	> 128	–	32	–
Cc1cccc(C(CCNC2CCC(N)CC2)c2cn(CC3CCOCC3)c3ccc(CN)cc23)c1 (centres unmarked) [Compound 311, N1-(3-(5-(aminomethyl)-1-((tetrahydro-2H-pyran-4-yl)methyl)-1H-indol-3-yl)-3-(m-tolyl)propyl) cyclohexane-1,4-diamine hydrochloride salt]	> 128	–	128	–
COC(=O)c1ccc2c(c1)c(CNCC1CCNCC1)cn2CC1CCCCC1 [Compound 304, methyl 1-(cyclohexylmethyl)-3-(((piperidin-4-ylmethyl)amino)methyl)-1H-indole-5-carboxylate hydrochloride salt]	> 128	–	64	–
COc1cc(C)cc(C(CC(=O)N[C@H]2CC[C@H](N)CC2)c2cn(CC3CCCCC3)c3ccccc23)c1.Cl (stereo partly drawn) [Compound 133, N-((1R,4R)-4-aminocyclohexyl)-3-(1-(cyclohexylmethyl)-1H-indol-3-yl)-3-(3-methoxy-5-methylphenyl) propanamide hydrochloride salt]	> 512	–	–	MIC [3]: > 512 µg/mL; IC50 [4]: 76 µM
FC1(F)CCC(Cn2cc(CCNC3CCNCC3)c3cc(Br)ccc32)CC1 [Compound 290, N-(2-(5-bromo-1-((4,4-difluorocyclohexyl)methyl)-1H-indol-3-yl)ethyl)piperidin-4-amine hydrochloride salt]	17	–	–	MIC [3]: 17 µg/mL; IC50 [4]: 61 µM

More lines, main results first:

MIC [1] [µg/mL]	MIC [2, 5] [µg/mL]	Structure (SMILES)	MIC [2, 6] [µg/mL]	further results
16	32	Cl.Cl.NCCCNCCC(c1cn(C2CCCCC2)c2ccccc12)C1CC1 (centres unmarked) [Compound 422, N1-(3-(1-cyclohexyl-1H-indol-3-yl)-3-cyclopropylpropyl) propane-1,3-diamine hydrochloride salt]	–	–
8 (≈ 19.1 µM)	16 (≈ 38.1 µM)	Cc1cccc(C(CCNCC(O)CN)c2cn(C3CCCCC3)c3ccccc23)c1 (centres unmarked) [Compound 386, 1-amino-3-((3-(1-cyclohexyl-1H-indol-3-yl)-3-(m-tolyl)propyl)amino) propan-2-ol]	–	–
> 128	8	Cc1cccc(C(CCOCCCN(C)C)c2cn(C3CCCCC3)c3ccccc23)c1 (centres unmarked) [Compound 364, 3-(3-(1-cyclohexyl-1H-indol-3-yl)-3-(m-tolyl)propoxy)-N,N-dimethylpropan-1-amine salt]	–	–
128	32	Cl.Cl.NCCCNCCC(c1ccncc1)c1cn(C2CCCCC2)c2ccccc12 (centres unmarked) [Compound 339, N1-(3-(1-cyclohexyl-1H-indol-3-yl)-3-(pyridin-4-yl)propyl)propane-1,3-diamine hydrochloride salt]	–	–
128	32	Cl.Cl.NCCCNCCC(c1cccnc1)c1cn(C2CCCCC2)c2ccccc12 (centres unmarked) [Compound 331, N1-(3-(1-cyclohexyl-1H-indol-3-yl)-3-(pyridin-3-yl)propyl)propane-1,3-diamine hydrochloride salt]	–	–
8	8	Cl.Cl.NCCCNCCC(c1cncc2ccccc12)c1cn(C2CCCCC2)c2ccccc12 (centres unmarked) [Compound 369, N1-(3-(1-cyclohexyl-1H-indol-3-yl)-3-(isoquinolin-4-yl)propyl)propane-1,3-diamine hydrochloride]	–	–
8	8	Cc1cccc(C(CCNCCCN)c2cn(CC3CCCCC3)c3ccccc23)c1.Cl.Cl (centres unmarked) [Compound 346, N1-(3-(1-(cyclohexylmethyl)-1H-indol-3-yl)-3-(m-tolyl)propyl)propane-1,3-diamine hydrochloride salt]	–	–
256	–	Cl.O=C(CCc1cn(CC2CCCCC2)c2ccccc12)NCCC1CCNCC1 [Compound 117, 3-(1-(cyclohexylmethyl)-1H-indol-3-yl)-N-(2-(piperidin-4-yl)ethyl)propanamide hydrochloride salt]	–	MIC [3]: 256 µg/mL; IC50 [4]: 166 µM
20	–	COc1ccccc1-c1ccc2c(c1)c(C(CCN[C@H]1CC[C@H](N)CC1)c1cccc(C)c1)cn2CC1CCCCC1 (stereo partly drawn) [Compound 229, (1R,4R)-N1-(3-(1-(cyclohexylmethyl)-5-(2-methoxyphenyl)-1H-indol-3-yl)-3-(m-tolyl)propyl)cyclohexane-1,4-diamine hydrochloride salt]	–	MIC [3]: 3 µg/mL; IC50 [4]: 5.4 µM
